In US20230399341A1, “7-PHENYL SUBSTITUTED 2-AMINOQUINAZOLINE INHIBITORS OF HPK1” (MERCK SHARP & DOHME LLC, priority 2020, published 2023):

Biological target: T1, Human HPK1, catalytic domain (Homo sapiens, UniProt Q92918)
T1 sequence (Q92918 1-346): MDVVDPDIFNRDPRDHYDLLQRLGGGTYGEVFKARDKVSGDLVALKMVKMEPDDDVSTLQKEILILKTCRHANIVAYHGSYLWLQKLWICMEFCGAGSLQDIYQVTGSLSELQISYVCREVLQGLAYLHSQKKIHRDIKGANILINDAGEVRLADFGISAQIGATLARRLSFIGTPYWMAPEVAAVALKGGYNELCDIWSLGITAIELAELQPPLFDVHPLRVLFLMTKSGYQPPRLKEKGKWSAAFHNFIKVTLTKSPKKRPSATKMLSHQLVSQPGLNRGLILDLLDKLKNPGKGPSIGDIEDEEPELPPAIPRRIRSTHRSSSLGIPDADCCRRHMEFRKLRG
Experiment: HPK1-SLP76 TR-FRET Assay
Assay type: biochemical
Conditions: 75 pM HPK1, ATP 10 uM, SLP76 10 nM, 30 min pre-incubation, 60 min reaction

Q: `Cc1c(-c2cc3nc(Nc4ccc(C5(C#N)CC5)cc4)ncc3c(N)c2F)cnc2c1NCCO2` [Compound 2-18, 1-(4-{[5-amino-6-fluoro-7-(8-methyl-2,3-dihydro-1H-pyrido[2,3-b][1,4]oxazin-7-yl)quinazolin-2-yl]amino}phenyl)cyclo-propane-1-carbonitrile] was tested. Which IC50 did it give?
A: The IC50 was 0.382 nM.

Q: With `COc1cc2c(cc1Nc1ncc3ccc(-c4cncc(S(C)(=O)=O)c4)cc3n1)CNCC2` [Compound 1-43, N-(6-methoxy-1,2,3,4-tetrahydroisoquinolin-7-yl)-7-[5-(methylsulfonyl)pyridin-3-yl]quinazolin-2-amine] as the compound, how does the IC50 read?
A: The IC50 was 82.8 nM.

Q: For `COc1cc2c(cc1Nc1ncc3ccc(-c4cc(N)ccc4C)cc3n1)CNCC2` [Compound 1-93, 7-(5-amino-2-methylphenyl)-N-(6-methoxy-1,2,3,4-tetrahydroisoquinolin-7-yl)quinazolin-2-amine], which IC50 is on record?
A: Its IC50 is 481 nM.

Q: How did the IC50 turn out when `COc1cc2c(cc1Nc1ncc3ccc(-c4cncc5cccnc45)cc3n1)CN(C)CC2` [Compound 1-24, N-(6-methoxy-2-methyl-1,2,3,4-tetrahydroisoquinolin-7-yl)-7-(1,6-naphthyridin-8-yl)quinazolin-2-amine] was run?
A: Its IC50 is 10.5 nM.

Q: Which IC50 does the source give for `CCC1COC(=O)N1c1ccc2cnc(Nc3cc4c(cc3OC)CCN(C)C4)nc2c1` (single isomer, unassigned) [Compound 3-14, (S or R)-4-ethyl-3-{2-[(6-methoxy-2-methyl-1,2,3,4-tetrahydroisoquinolin-7-yl)amino]quinazolin-7-yl}-1,3-oxazolidin-2-one] here?
A: Its IC50 is 24.6 nM.

Q: `COc1cc2c(cc1Nc1ncc3ccc(N4CC5CCS(=O)(=O)C5C4)cc3n1)CN(C)CC2` (racemic) [Compound 3-60, (±)-5-{2~-[(6-methoxy-2-meth-yl-1,2,3,4-tetrahydroisoquinolin-7-yl)amino]quinazolin-7-yl}-hexahydro-1lambda~6~-thieno-[2,3-c]pyrrole-1,1(2H)-dione] was tested. Which IC50 did it give?
A: The IC50 was 807 nM.

Q: `CN1CCc2ccc(Nc3ncc4c(N)c(F)c(-c5cncc6[nH]ccc56)cc4n3)cc2C1` [Compound 2-139, 6-fluoro-N~2~-(2-methyl-1,2,3,4-tetrahydroisoquinolin-7-yl)-7-(1H-pyrrolo[2,3-c]pyridin-4-yl)quinazoline-2,5-diamine] was tested. Which IC50 did it give?
A: The IC50 was 0.0422 nM.

Q: `COc1cc2c(cc1Nc1ncc3ccc(-c4cccc(N5CCOCC5)c4)cc3n1)CNCC2` [Compound 1-91, N-(6-methoxy-1,2,3,4-tetrahydroisoquinolin-7-yl)-7-[3-(morpholin-4-yl)phenyl]quinazolin-2-amine] was tested. Which IC50 did it give?
A: Its IC50 is 210 nM.

Q: For `Cc1c(-c2cc3nc(Nc4ccc(CC(=O)N5CCOCC5)cc4)ncc3cc2F)cnc2c1NCCO2` [Compound 1-133, 2-(4-{[6-fluoro-7-(8-methyl-2,3-dihydro-1H-pyrido[2,3-b][1,4]oxazin-7-yl)quinazolin-2-yl]amino}phenyl)-1-(morpholin-4-yl)ethan-1-one], which IC50 is on record?
A: The IC50 was 0.0835 nM.

Q: `Cc1c(-c2cc3nc(Nc4ccc(NS(C)(=O)=O)cc4)ncc3c(N)c2F)cnc2c1NCCO2` [Compound 2-16, N-(4-{[5-amino-6-fluoro-7-(8-methyl-2,3-dihydro-1H-pyrido[2,3-b][1,4]oxazin-7-yl)quinazolin-2-yl]amino}phenyl)methane-sulfonamide] was tested. Which IC50 did it give?
A: The IC50 was 0.0932 nM.

Q: How did the IC50 turn out when `CN1Cc2cc(Nc3ncc4c(N)c(F)c(-c5cnc6c(c5)NCCO6)cc4n3)ccc2C2(CC2)C1` [Compound 2-151, 7-(2,3-dihydro-1H-pyrido[2,3-b][1,4]oxazin-7-yl)-6-fluoro-N~2~-(2′-methyl-2′,3′-dihydro-1′H-spiro[cyclopropane-1,4′-isoquinolin]-7′-yl)quinazoline-2,5-diamine] was run?
A: Its IC50 is 0.267 nM.

Q: `Cc1c(-c2cc3nc(Nc4ccc(CS(C)(=O)=O)cc4)ncc3c(N)c2F)cnc2c1NCCO2` [Compound 2-24, 6-fluoro-7-(8-methyl-2,3-dihydro-1H-pyrido[2,3-b][1,4]oxazin-7-yl)-N˜2˜-{4-[(methylsulfonyl)methyl]phenyl}quinazoline-2,5-diamine] was tested. Which IC50 did it give?
A: Its IC50 is 0.0508 nM.

Q: For `COc1cc2c(cc1Nc1ncc3ccc(-c4cccc(CNC(C)=O)c4)cc3n1)CN(C)CC2` [Compound 1-98, N-[(3-{2-[(6-methoxy-2-methyl-1,2,3,4-tetrahydroisoquinolin-7-yl)amino]quinazolin-7-yl}phenyl)methyl]acetamide], which IC50 is on record?
A: Its IC50 is 203 nM.

Q: Which IC50 does the source give for `COc1cc2c(cc1Nc1ncc3ccc(-c4ccc(F)cc4CN)cc3n1)CN(C)CC2` [Compound 1-8, 7-[2-(aminomethyl)-4-fluorophenyl]-N-(6-methoxy-2-methyl-1,2,3,4-tetrahydroisoquinolin-7-yl)quinazolin-2-amine] here?
A: The IC50 was 403 nM.

Q: How did the IC50 turn out when `Cc1ccc(F)cc1-c1cc2nc(Nc3ccc4c(c3)CN(C)CC4)ncc2c(N)c1F` [Compound 2-174, 6-fluoro-7-(5-fluoro-2-methylphenyl)-N~2~-(2-methyl-1,2,3,4-tetrahydroisoquinolin-7-yl)quinazoline-2,5-diamine] was run?
A: The IC50 was 11.4 nM.

Q: `COc1cc2c(cc1Nc1ncc3ccc(-c4ccc5c(c4)OCCO5)cc3n1)CNCC2` [Compound 1-70, 7-(2,3-dihydro-1,4-benzodioxan-6-yl)-N-(6-methoxy-1,2,3,4-tetrahydroisoquinolin-7-yl)quinazolin-2-amine] was tested. Which IC50 did it give?
A: Its IC50 is 140 nM.

Q: Which IC50 does the source give for `COc1cc2c(cc1Nc1ncc3c(N)c(F)c(-c4cnc5c(c4C)NCCO5)cc3n1)CN(C(C)C)CC2` [Compound 2-72, 6-fluoro-N~2~-[6-methoxy-2-(propan-2-yl)-1,2,3,4-tetrahydroisoquinolin-7-yl]-7-(8-methyl-2,3-dihydro-1H-pyrido[2,3-b][1,4]oxazin-7-yl)quinazoline-2,5-diamine] here?
A: The IC50 was 0.117 nM.

Q: How did the IC50 turn out when `CNC(=O)c1ccc(Nc2ncc3c(N)c(F)c(-c4cnc5c(c4C)NCCO5)cc3n2)c(OC)c1` [Compound 2-74, 4-{[5-amino-6-fluoro-7-(8-methyl-2,3-dihydro-1H-pyrido[2,3-b][1,4]oxazin-7-yl)quinazolin-2-yl]amino}-3-methoxy-N-methylbenzamide] was run?
A: Its IC50 is 0.266 nM.

Q: With `COC1CC(NC(=O)c2ccc(Nc3ncc4c(N)c(F)c(-c5cnc6c(c5C)NCCO6)cc4n3)cc2)C1` (stereo not shown) [Compound 2-58, 4-{[5-amino-6-fluoro-7-(8-methyl-2,3-dihydro-1H-pyrido[2,3-b][1,4]oxazin-7-yl)quinazolin-2-yl]amino}-N-(3-methoxycyclobutyl) benzamide] as the compound, how does the IC50 read?
A: The IC50 was 0.0791 nM.

Q: `COc1cc2c(cc1Nc1ncc3ccc(-c4cccc(-c5cn[nH]c5)c4)cc3n1)CNCC2` [Compound 1-56, N-(6-methoxy-1,2,3,4-tetrahydroisoquinolin-7-yl)-7-[3-(1H-pyrazol-4-yl)phenyl]quinazolin-2-amine] was tested. Which IC50 did it give?
A: Its IC50 is 204 nM.

Q: Which IC50 does the source give for `COc1cc2c(cc1Nc1ncc3ccc(Nc4cc(S(C)(=O)=O)c(C)cc4C)cc3n1)CN(C)CC2` [Compound 3-42, N~7~-[2,4-dimethyl-5-(methyl-sulfonyl)phenyl]-N~2~-(6-methoxy-2-methyl-1,2,3,4-tetra-hydroisoquinolin-7-yl)quinaz-oline-2,7-diamine] here?
A: The IC50 was 3.17 nM.

Q: How did the IC50 turn out when `Cc1c(-c2c(F)c(N)c3cnc(Nc4ccc5c(c4)CN(C(C)C)CC5)nc3c2Cl)cnc2c1NCCO2` [Compound 2-96, (+ or −)-8-chloro-6-fluoro-7-(8-methyl-2,3-dihydro-1H-pyrido[2,3-b[1,4]oxazin-7-yl)-N~2~- [2-(propan-2-yl)-1,2,3,4-tetrahydroisoquinolin-7-yl]quinazoline-2,5-diamine] was run?
A: The IC50 was 0.0825 nM.
